Columns and labels:
[1] = Inhibition of BRD4 in mouse MPNST cells assessed as reduction in cell viability incubated for 72 hrs by SRB assay
[2] = Inhibition of BRD4 in mouse primary skin-derived precursors (Nf1-/-, P53-/-) assessed as reduction in cell viability incubated for 72 hrs by SRB assay

Cc1sc2c(c1C)C(c1ccc(Cl)cc1)=N[C@@H](CC(=O)OC(C)(C)C)c1nnc(C)n1-2
IC50 [1]: < 400 nM
IC50 [2]: < 400 nM

Reference: BindingDB's records for PubMed 28813519 (Erasmus University Medical Center)
